{
  "source": "patent US4251528A",
  "about": "“Phthalazin-4-ylacetic acid derivatives” (Imperial Chemical Industries Limited, priority 1977, dated 1981)",
  "key": {"aldose reductase": {"target": "T1, aldose reductase (Rattus norvegicus, UniProt P07943)", "T1 construct": "the eye lenses and sciatic nerves are removed; from tissue; host or cells: rat sciatic nerve (and eye lens), enzyme acting in the living animal", "test": "streptozotocin diabetic rat test, residual sorbitol levels in tissues", "type": "in vivo", "details": "oral dosing at 10 mg./kg. for 5 days", "method": "Thus, rats are made diabetic by dosing with streptozotocin and are then dosed daily with the test compound for 5 days. The animals are then killed and the eye lenses and sciatic nerves are removed. After a standard work-up procedure the residual sorbitol levels in each tissue are determined by gas liquid chromatography after conversion to the poly trimethylsilyl derivatives. Inhibition of aldose reductase in vivo is then assessed by comparing the residual sorbitol levels in tissues from the dosed diabetic group of rats with those of an undosed group of diabetic rats and an undosed, normal group of rats.\nAlternatively, a modified test may be used in which the streptozotocin induced diabetic rats are dosed daily with test compound for two days. After 2-4 hours from the final dose the animals are killed and the sciatic nerves are removed and assessed for residual sorbitol levels as described above.\nActive compounds in either of these tests reduce residual sorbitol levels to levels which are similar to those of normal, undosed rats. […] No overt toxic or other undesirable effects were detected with compounds of formula I at 100 mg./kg. in the above tests."}, "[1]": {"target": "T2, purified aldose reductase isolated from bovine lenses (Bos taurus, UniProt P16116)", "T2 construct": "purified aldose reductase is isolated in known manner from bovine lenses; from tissue; host or cells: bovine lens", "test": "in vitro inhibition of purified aldose reductase (reduction of glucose to sorbitol, spectrophotometric)", "type": "biochemical", "method": "Thus, purified aldose reductase is isolated in known manner from bovine lenses. The percentage inhibition of these enzyme's ability in vitro to reduce aldoses to polyhydric alcohols, and particularly to reduce glucose to sorbitol, caused by a test compound is then determined using standard spectrophotometric methods. […] Thus, by way of illustration, 2-(2-fluoro-4-bromobenzyl)-1,2-dihydro-1-oxophthalazin-4-ylacetic acid has a Ki of 2.0×10^-8 M."}, "[2]": {"test_system": "carageenin induced oedema", "type": "in vivo, rats", "details": "for overt toxicity: rat, in vivo; for inhibition of carageenin induced oedema: rats", "method": "The compounds of the invention may therefore in addition be useful in the treatment of painful inflammatory joint diseases such as rheumatoid arthritis, osteoarthritis and ankylosing spondylitis. In this connection it is envisaged that they would be administered primarily orally at a daily dose in the range 10-50 mg./kg."}},
  "note": "pKi: −log10 of the molar value.",
  "data": [
    {"molecule": "O=C(O)Cc1nn(Cc2ccc(Br)cc2F)c(=O)c2ccccc12", "note": "[2-(2-fluoro-4-bromobenzyl)-1,2-dihydro-1-oxophthalazin-4-ylacetic acid]", "values": [
      {"measurement": "residual sorbitol level in the sciatic nerve, relative to control undosed diabetic rats", "setting": "aldose reductase", "value": "approximately 60%"},
      {"measurement": "pKi", "setting": "[1]", "value": 7.70},
      {"measurement": "overt toxicity", "setting": "[2]", "value": "without any sign of overt toxicity"},
      {"measurement": "inhibition of carageenin induced oedema", "setting": "[2]", "value": "significant inhibition"}
    ]},
    {"molecule": "O=C(O)Cc1nn(Cc2ccc(Br)c(Cl)c2)c(=O)c2ccccc12", "note": "[2-(3-chloro-4-bromobenzyl)-1,2-dihydro-1-oxophthalazin-4-ylacetic acid]", "values": [
      {"measurement": "overt toxicity", "setting": "[2]", "value": "without any sign of overt toxicity"},
      {"measurement": "inhibition of carageenin induced oedema", "setting": "[2]", "value": "significant inhibition"}
    ]}
  ]
}
